According to patent US20020049173A1, “Alteration of cellular behavior by antisense modulation of mRNA processing” (priority 1999, published 2002):
In the oligonucleotide strings, read from the 5' end, every base follows the letter of its sugar. An asterisk marks phosphorothioate; unmarked linkages are phosphodiester. Other units and linkages are bracketed, terminal groups are in braces. A string of capitals states the bases alone. e = 2'-O-(2-methoxyethyl) (MOE); [5mC] = 5-methylcytosine

Columns and labels:
[1] = test system: Human IL-5 receptorα soluble form mRNA; assay: Human IL-5 receptorα soluble form transcript, Northern blot; format: cell-based; settings: Northern blot analysis
Text: ISIS 16746, 16748 and 16755 inhibited IL-5 receptor mRNA expression by over 50% and are therefore preferred in this assay. […] Thus it is believed that ISIS 16755 redirects splicing in favor of the membrane form, as is consistent with data obtained with other non-RNAse H (e.g., uniform 2′-methoxyethoxy) oligonucleotides targeted to splice sites.

[2] = test system: Human IL-5 receptorα membrane form mRNA; assay: Human IL-5 receptorα membrane form mRNA expression (18 hr); format: cell-based; set-up: % INHIB'N, human IL-5 receptorα membrane form mRNA / % of CONTROL, human IL-5 receptorα membrane form mRNA: concentration or dose not given beside the values; settings: 18 hr
Text: mRNA transcripts encoding the membrane form of the human IL-5 receptorα contain exons 1-10 and 12-14. Exon 11 is spliced out. It is, therefore, possible to target sequences in exons 1-10 which are common to both soluble and membrane forms of the receptor, or to selectively target sequences only present in the membrane form (exons 12-14). Oligonucleotides were also designed to target various intron/exon boundaries downstream of exon 11, with the intention of preventing successful splicing out of exon 11 and thus redirecting splice products away from the membrane form and in favor of the soluble form of IL-5 receptorα.
(§1) A series of oligonucleotides were designed to target various splice sites or (intron-exon boundaries) in the IL-5 receptor mRNA.

Human IL-5 receptorα = Human IL-5 receptorα protein expression on the cell surface (36 hr), TF-1 cells; format: cell-based; set-up: % INHIB, human IL-5 receptorα protein on the cell surface / % of CONTROL, human IL-5 receptorα protein on the cell surface: concentration or dose not given beside the values; settings: 36 hr
Text: as §1
ISIS 16746, 16748, 16755 and 16758 inhibited human IL-5 receptorα protein by over 50% in this assay and are therefore preferred. ISIS 16758 and 16755 were chosen for further study.

[3] = test system: E-selectin mRNA (Type III polyadenylation signal and site); assay: E-selectin transcript forms by Northern blot in TNF-α-induced HUVEC; format: cell-based, human; settings: increasing oligonucleotide dose, TNF-α 2 hours
Experimental: (§2) HUVEC (Clonetics, San Diego, Calif.) were cultivated in endothelial basal media supplemented with 10% fetal bovine serum. Cells were treated with oligonucleotides as described previously (Chiang, 1991, J. Biol. Chem. 27:18162-18171; Vickers, 2000, Nucleic Acids Res. 28:1340-1347). Briefly, cells were incubated with a mixture of Lipofectin (Gibco BRL, Gaithersburg, Md.) and oligonucleotide for 4 hours. Cells were incubated for 2-24 hours, then treated with 5 ng/ml TNF-α for 2-3 hours to induce expression of E-selectin. Cells were then washed extensively with phosphate buffered saline (PBS), fresh complete media was added and cells were incubated at 37° C. until harvested.
(§3) Total RNA was harvested from HUVEC at various times following TNF-α induction using a ToTALLY RNA kit (Ambion) according to the manufacturer's protocol). For Northern blots, RNA was separated on a 1.2% agarose gel containing 1.1% formaldehyde, then transferred to nylon membranes. Blots were hybridized with [^32P]-dCTP random prime labeled cDNA probes specific for E-selectin or […] (G3PDH) for 2 hours in Rapid-hyb solution (Amersham). Blots were washed with 2×SSC containing 0.1% SDS at room temperature, followed by 0.1×SSC containing 0.1% SDS at 60° C. Quantitation of RNA expression was performed using a Molecular Dynamics PhosphorImager. Anchored reverse transcriptase polymerase chain reaction (RT/PCR) was performed essentially as described by Chu et al. (supra.).
HUVEC were treated with 2′-O-methoxyethyl (MOE)/phosphorothioate antisense oligonucleotides directed to the Type III polyadenylation signal and site (Table 1A) as described above. After about 24 hours, cells were treated with TNF-α to induce E-selectin expression. Cells were harvested after 2 hours and RNA was isolated. E-selectin expression was analyzed by Northern blotting. […] With increasing oligonucleotide dose, the longer Type III message decreased while a shorter message increased (FIG. 2). This shorter message most likely represents a combination of Type I and II messages, because the Type II message is just 158 bases longer than the Type I message, and the difference in sizes cannot be resolved on the gel which was used.

E-selectin mRNA [4] = assay: Stability of E-selectin messages after TNF-α removal (Northern blot, HUVEC); format: cell-based, human; settings: 200 nM
Experimental: as §2
as §3, with “Anchored reverse transcriptase polymerase chain reaction (RT/PCR) was performed essentially as described by Chu et al. (supra.).” left out

E-selectin mRNA [5] = assay: Non-quantitative RT-PCR of E-selectin Type I, II and III transcripts in HUVEC; format: cell-based, human; settings: relative to untreated cells, 200 nM stated for ISIS 106344
Experimental: as §3
To determine if processing could be controlled more specifically, oligonucleotides were also designed to the upstream polyadenylation signals. Non-quantitative RT-PCR was used to distinguish among the three forms of the message. In the absence of oligonucleotide, all three types of transcript were detected. […] This difference may be due to variation in the efficiency of PCR amplification on the varying length products, with the shorter Type I and II messages being more efficiently amplified than the Type III product. […] To determine if the effects of ISIS 106344 were unique, antisense oligonucleotides were designed to the Type I and Type II polyadenylation sites.
To evaluate whether treatment with two oligonucleotides would result in the production of a single species of E-selectin message, HUVEC were treated with ISIS 106344, and either ISIS 135568 or ISIS 135570 (150 nM each). […] Cells were also treated with both ISIS 135568 and ISIS 135570.

E-selectin = E-selectin cell surface protein expression by flow cytometry in HUVEC; format: cell-based, human; settings: for time of maximal E-selectin protein expression: after addition of TNF-α
Experimental: as §2
Following oligonucleotide treatment, cells were detached with D-PBS (without calcium and magnesium) supplemented with 4 mM EDTA. Cells were centrifuged at 5,000 rpm for 1 minute and washed in 2% bovine serum albumin (BSA), 0.2% sodium azide in D-PBS at 4° C. E-selectin-phycoerythrin antibody (Ancell) was then added at 1:100 in 0.1 ml of the above buffer, and incubated for 30 min at 4° C. in the dark. Cells were washed again as above and resuspended in 0.3 ml of PBS buffer with 0.5% formaldehyde. Cells were analyzed for E-selectin expression on a FACScan (Becton-Dickinson). Results are expressed as percentage of control expression based upon the mean fluorescence intensity.
The treated cells were stimulated with TNF-α for 2 hours, then analyzed for E-selectin protein expression by flow cytometry. […] Results at the protein level are not as dramatic as at the RNA level due to the fact that the Type III message remains the predominant RNA species present (FIG. 2). Any change in protein stability resulting from the presence of the type I/II message would likely be partially masked by the more abundant Type III RNA.

A549 cells [6] = assay: Sensitization of A549 cells to taxol-induced cell death, propidium iodide staining; format: cell-based, human; settings: 100 nM oligo
Experimental: A549 cells were treated with 100 nM ISIS 22783 or the 5-mismatch ISIS 26080 and taxol at various doses. The percent apoptotic cells was quantitated by propidium iodide staining according to standard methods.

A549 cells [7] = assay: Sensitization of A549 cells to cisplatinum-induced cell death, propidium iodide staining; format: cell-based, human; settings: 100 nM oligo
Experimental: A549 cells were treated with 100 nM ISIS 22783 or the 5-mismatch ISIS 26080 and cisplatinum at various doses. The percent apoptotic cells was quantitated by propidium iodide staining according to standard methods.

murine bcl-x mRNA [8] = assay: bcl-xs mRNA expression in vivo in mouse liver; settings: preliminary experiments
Text: (§4) ISIS 22783 is also fully complementary to the murine bcl-x mRNA which makes it useful for animal studies.

A549 cells [9] = assay: Sensitization of A549 cells to UV-induced cell death, propidium iodide staining; format: cell-based, human; settings: 100 nM oligo
Experimental: A549 cells were treated with 100 nM ISIS 22783 or the 5-mismatch ISIS 26080 and exposed to ultraviolet (UV) radiation. The percent apoptotic cells was quantitated by propidium iodide staining according to standard methods.

human bcl-x mRNA [10] = assay: Total bcl-x mRNA and bcl-xs/bcl-xl ratio in A549 cells, RNase protection; format: cell-based
Text: In accordance with the present invention, a series of oligonucleotides were designed to target different regions of human bcl-x RNA, using published sequences (Boise, L. H., et al., 1993, Cell 74, 597-608; Genbank Accession No. L20121, locus name “HSBCLXL,” incorporated herein as SEQ ID NO: 39). Antisense oligonucleotides were designed to target areas of exon 1 and exon 2 of human bcl-x, particularly around the exon 1/exon 2 splice site and in sequence regions present in bcl-xl but not in bcl-xs. All backbone linkages are phosphorothioates; All 2′MOE cytosines are 5-methylcytosines.
Oligonucleotides were evaluated for their respective effects on bcl-xs and bcl-xl3 mRNA levels in A549 cells along with total bcl-x mRNA levels, using the RIBOQUANT™ RNase protection kit (Pharmingen, San Diego Calif.). All assays were performed according to manufacturer's protocols.
A “walk” was done in this region with 20mer 2′-MOE phosphorothioate oligonucleotides targeted to sequences whose 5′ ends were 24, 26, 29, 31, 33, 37, 39, 41, 43, 44, 45 and 47 bases upstream of the splice site. These oligonucleotides were screened as before at a dose of 200 nM oligonucleotide for effect on short and long bcl-x transcripts.

human bcl-x mRNA [11] = assay: as above; format: cell-based; remark: listed apart in the source
bax mRNA = bax mRNA by RNAse protection assay; format: cell-based
Experimental: ISIS 22783 was tested by RNAse protection assay for ability to inhibit bax, another apoptotic gene. It had no effect on bax mRNA levels.

murine bcl-x mRNA [12] = assay: bcl-xs mRNA induction in mouse cell lines bEND, AML12 and Hepa; format: cell-based
Text: as §4

ISIS 16755: GAACACTTACATTTTACAGA, SEQ ID 34; E12/I12; 2′-MOE pattern not visible (antisense eG*eA*eA*e[5mC]*eA*e[5mC]*eT*eT*eA*e[5mC]*eA*eT*eT*eT*eT*eA*e[5mC]*eA*eG*eA)
inhibition of the soluble form transcript [1]: without significantly inhibiting the soluble form | % INHIB'N, human IL-5 receptorα membrane form mRNA [2]: over 50% | % INHIB, human IL-5 receptorα protein on the cell surface (Human IL-5 receptorα): over 50%

ISIS 106344: CATAAGCACATTTATTGTCA, SEQ ID 66; uniformly 2′-MOE phosphorothioate; E-selectin Type III poly(A) signal (all 2'-MOE, all phosphorothioate, methylation of C not given here)
longer Type III E-selectin message (Northern blot) [3]: decreased | shorter E-selectin message (Type I and II) (Northern blot) [3]: increased | stability of the shorter (type I/II) messages following TNF-α removal (E-selectin mRNA [4]): More than half of the shorter messages remained five hours | time following TNF-α removal at which about one half of the type II message remained (E-selectin mRNA [4]; message printed as type II): ~2.5 h | Type I E-selectin message (RT-PCR) (E-selectin mRNA [5]): increased | Type II E-selectin message (RT-PCR) (E-selectin mRNA [5]): increased | Type III E-selectin message (RT-PCR) (E-selectin mRNA [5]): decrease | duration of E-selectin protein expression (E-selectin; TNF-α 2 hours, versus control oligonucleotide): sustained expression of E-selectin protein | time of maximal E-selectin protein expression (E-selectin): four hours after addition of TNF-α

ISIS 106346: CATCAGAACTTATATAGTCA, SEQ ID 68; 106344 mismatch control (all 2'-MOE, all phosphorothioate, methylation of C not given here) [reference compound]
time of maximal E-selectin protein expression (E-selectin): four hours after addition of TNF-α

ISIS 22783: CTGGATCCAAGGCTCTAGGT, SEQ ID 44; fully 2′-MOE, full-phosphorothioate; bcl-xl Exon 1L 664-683 (e[5mC]*eT*eG*eG*eA*eT*e[5mC]*e[5mC]*eA*eA*eG*eG*e[5mC]*eT*e[5mC]*eT*eA*eG*eG*eT)
% Apoptotic cells (approx) (A549 cells [6]; taxol 0 μg/ml): ~8% | % Apoptotic cells (approx) (A549 cells [6]; taxol 5 μg/ml): ~8% | % Apoptotic cells (approx) (A549 cells [6]; taxol 10 μg/ml): ~15% | % Apoptotic cells (approx) (A549 cells [6]; taxol 30 μg/ml): ~26% | % Apoptotic cells (approx) (A549 cells [7]; cisplatinum 0 μg/ml): ~3% | % Apoptotic cells (approx) (A549 cells [7]; cisplatinum 1 μg/ml): ~6% | % Apoptotic cells (approx) (A549 cells [7]; cisplatinum 10 μg/ml): ~13% | % Apoptotic cells (approx) (A549 cells [7]; cisplatinum 50 μg/ml): ~27% | bcl-xs mRNA expression in mouse liver (murine bcl-x mRNA [8]): slight induction of bcl-xs mRNA expression | % Apoptotic cells (approx) (A549 cells [9]; UV 0 mJ/M^2): ~2% | % Apoptotic cells (approx) (A549 cells [9]; UV 50 mJ/M^2): ~4% | % Apoptotic cells (approx) (A549 cells [9]; UV 100 mJ/M^2): ~33% | % Apoptotic cells (approx) (A549 cells [9]; UV 200 mJ/M^2): ~27% | time after treatment at which bcl-xs induction with concurrent bcl-xL reduction begins (human bcl-x mRNA [10]; A549 cells): 2 to 4 h | % CRTL total bcl-x (human bcl-x mRNA [10]; A549 cells (Table 13)): without reducing the total bcl-x mRNA level | bcl-xs/bcl-xl (%) (human bcl-x mRNA [10]; A549 cells, no oligo 17.56): 293% | approx. ratio of bcl-xs/bcl-xl (human bcl-x mRNA [10]; Oligo Concentration 200 (unit not given)): ~8.5 | approx. ratio of bcl-xs/bcl-xl (human bcl-x mRNA [11]; Oligo Concentration 100 (unit not given)): ~4.5 | approx. ratio of bcl-xs/bcl-xl (human bcl-x mRNA [11]; Oligo Concentration 400 (unit not given)): ~18 | effect on bax mRNA levels (bax mRNA): no effect | induction of bcl-xs mRNA (murine bcl-x mRNA [12]): induction of bcl-xs mRNA
